Earlier results as cited in patent publication US20130172186A1 (priority 2010, published 2013).
Read-outs that look alike come from different tables or passages of the source.

Tests used:
[1] = system: phytoalexins and phenols in potato tubers; details: tubers from treated plants after P. infestans challenge
P. cinnamomi = details: 40 μg/ml phosphonate in culture, 4 days later

CCO[PH](=O)O [fosetyl-Al, aluminium tris(o-etyl phosphonate)]
observed instances in which pathogen growth was arrested at the local hypersensitive cell death sites (P. nicotianae; in vivo): 86% | increase of accumulation of phenols vs control tubers [1]: fivefold | increase of accumulation of phytoalexins vs control tubers [1]: approximately tenfold

phosphite
observed instances in which pathogen growth was arrested at the local hypersensitive cell death sites (P. nicotianae; fosetyl-Al (100 μg/ml)- or phosphite (70 μg/ml)-treated tobacco seedlings, in 24 h): 86%

phosphonate
P. cinnamomi growth inhibited (P. cinnamomi): about 70%
